Data set [1] is described as follows: Phase I pivotal food effect pharmacokinetic study FUR-PK-03-19 (755/19). It counts as in vivo, human. The settings on record: PK phase I studies. Here is the method:
Study title: Randomized, open-label, three-period, cross-over, food effect pharmacokinetic study comparing bioavailability of furazidin, prolonged-release tablets, 200 mg having a composition of IR/1+MR/1 according to Example 1 in healthy subjects in different fed conditions.
Aim of the study: The main study objective was to evaluate the pharmacokinetic properties and to compare the bioavailability of the Test product in healthy volunteers under different fed conditions.
Study conduct: In this bioavailability study, the pharmacokinetic profile was tested for the Test formulation (prolonged-release bilayer tablet, IR/1+MR/1) having a strength of 200 mg furazidin. The bioavailability study was carried out under different fed conditions (after a high-protein meal or after a high-fat, high-calorie meal) and in fasting state in 30 healthy subjects. On the day of dosing, the subjects received randomly after an overnight fast a single dose of the modified-release formulation, administered on empty stomach (fasting conditions, Treatment A) or after a high-protein meal (Treatment B) or after a high-fat, high-calorie meal (Treatment C), each time with 240 mL of water. For each subject, there were 3 dosing periods, separated by a washout period of 7 days. […]
The pharmacokinetic data for plasma and urine were statistically analysed in 29 subjects. […]

For data set [2] the following is noted: upon oral administration; cited from earlier work.
The test system of the next data set is Escherichia coli. The settings on record: constant level, unchanged for several decades; cited from earlier work.

For `O=C1CN(/N=C/C=C/c2ccc([N+](=O)[O-])o2)C(=O)N1` [furazidin], in data set [1], the site of absorption result is reported as “mainly absorbed in the upper part of the small intestine”. Besides, the half-life entry in data set [2] is given as “below 1 hour”. Moreover, the “susceptibility of Escherichia coli to furazidin” value in the data set on Escherichia coli was “approx. 90%”.

Source of the values: patent publication EP4032530B1, “PROLONGED-RELEASE FURAZIDIN COMPOSITION” (Adamed Pharma S.A., priority 2021, dated 2022).
